The numbers were not newly measured in patent US8034921B2, “IRNA agents targeting CCR5 expressing cells and uses thereof” (Alnylam Pharmaceuticals, Inc., priority 2006, dated 2011), which cites them from elsewhere.

Read-outs that look alike come from different tables or passages of the source.

The subject of series [1] is HIV-infected patients.
The conditions of series [2]: in vivo.
Series [3] concerns the target T1, CCR5 (Homo sapiens, UniProt P51681). On the set-up: expressed in transfected cells; host or cells: CHO cells. The following applies: CHO cells expressing recombinant human CCR5.
The target in series [4] is T1, CCR5. On the set-up: expressed in transfected cells; host or cells: CHO cells. To be noted: membranes from CHO cells stably expressing recombinant human CCR5; read-out: IC50, binding of [125I]RANTES.
The target in series [5] is T1, CCR5. Also on record: expressed in transfected cells; host or cells: CHO cells. The following applies: CCR5-expressing CHO cells; read-out: IC50, inhibition of [125I]RANTES binding.
Series [6] concerns the target HIV-1 gp120/CCR5 (Homo sapiens, UniProt P51681). The following applies: read-out: IC50, HIV-1 gp120/CCR5 binding.
The conditions of series [7]: rodents.
For series [8] the following is noted: healthy volunteers.
The test system of series [9] is R5 HIV-1 isolates.
Series [10] concerns the target cyano CCR5 (Macaca fascicularis, UniProt P61814). The following applies: cyano CCR5, transfected CHO cell membranes; read-out: IC50, CCR5 binding against [125I]MI-1α.
Series [11] has as its target T1, CCR5. To be noted: read-out: IC50, inhibition of [125I]MIP-1α binding.

T1 sequence (P51681 whole entry): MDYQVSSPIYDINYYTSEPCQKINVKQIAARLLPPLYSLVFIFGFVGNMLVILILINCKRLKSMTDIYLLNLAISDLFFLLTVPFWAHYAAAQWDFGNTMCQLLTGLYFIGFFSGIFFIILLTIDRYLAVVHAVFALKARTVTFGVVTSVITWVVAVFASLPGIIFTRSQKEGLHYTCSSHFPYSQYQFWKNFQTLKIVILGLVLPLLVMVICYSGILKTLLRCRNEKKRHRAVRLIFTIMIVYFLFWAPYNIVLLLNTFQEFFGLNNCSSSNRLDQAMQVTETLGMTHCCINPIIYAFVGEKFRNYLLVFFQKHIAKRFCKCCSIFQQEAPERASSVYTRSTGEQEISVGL
Sequence of HIV-1 gp120/CCR5 (P51681 whole entry): as above

Turning to `COC[C@@H](c1ccc(C(F)(F)F)cc1)N1CCN(C2(C)CCN(C(=O)c3c(C)ncnc3C)CC2)C[C@@H]1C` [Compound 1], the viral load entry in series [1] (48 HIV-infected patients, phase I) is “dose-dependent reduction in viral load”. Moreover, the cardiovascular side effects entry in [1] (human, in vivo) is recorded as “no cardiovascular side effects”. Moreover, the bioavailability in [2] is reported as 100%.

In the case of `CCN(C(=O)Cc1ccc(S(C)(=O)=O)cc1)C1CCN(C(C)CC(NC(=O)OC2CCOCC2)c2ccccc2)CC1` (stereo not shown) [Compound 3], the “IC50 for inhibition of CCL3 and CCL5 binding” value in series [3] was “sub-nanomolar range”.

As to `CCN(C(=O)Cc1ccc(S(=O)(=O)N(C)C)cc1)C1CCN(CCC(c2ccccc2)c2ccccc2)CC1` [Compound 5b], the IC50 in series [4] is under 10 nM.

With `CCN(C(=O)Nc1ccc(S(C)(=O)=O)cc1)C1CCN(CCC(c2ccccc2)c2ccccc2)CC1` [Compound 7], the IC50 in series [4] is 49 nM.

`CS(=O)(=O)N1CCC(C(=O)N(CCCN2CCC(Cc3ccc(S(N)(=O)=O)cc3)CC2)c2ccc(Cl)c(Cl)c2)CC1` [Compound 9a]: in series [5], the IC50 is 3.4 nM.

On to `CNS(=O)(=O)c1ccc(CC2CCN(CCCN(C(=O)C3CCN(S(C)(=O)=O)CC3)c3ccc(Cl)c(Cl)c3)CC2)cc1` [Compound 9b], for which, in series [5], the IC50 is 1.5 nM.

On to `CN(C)S(=O)(=O)c1ccc(CC2CCN(CCCN(C(=O)C3CCN(S(C)(=O)=O)CC3)c3ccc(Cl)c(Cl)c3)CC2)cc1` [Compound 9c], for which, in series [5], the IC50 is 1.2 nM.

As to `CS(=O)(=O)N1CCC(C(=O)N(CCCN2CCC(Cc3ccc(S(=O)(=O)N4CCOCC4)cc3)CC2)c2ccc(Cl)c(Cl)c2)CC1` [Compound 9d], the IC50 in series [5] is 1.3 nM.

As to `CCCCN1C(=O)C(CC2CCCCC2)NC(=O)C12CCN(Cc1ccc3c(c1)OCCO3)CC2` (stereo not shown) [Compound 13], the IC50 in [6] is 1 nM. Besides, the oral bioavailability result in [7] is recorded as “favorable”. Also, in series [8], the QTc prolongation entry is on record as “some incidents of QTc prolongation” and the serious adverse events entry is on record as “No serious adverse events”. In addition, in series [8] (multiple dosing twice a day), the tolerated dose was 800 mg. Further, the tolerated dose in [8] (single dose) was 1200 mg. Moreover, the “activity against a wide range of R5 HIV-1 isolates” value in series [9] was “potent activity”.

Consider `O=C(Nc1ccc(Cl)cc1)N(CCCN1CCC(Cc2ccc(S(=O)(=O)N3CCOCC3)cc2)CC1)c1ccccc1` [Compound 15], for which the IC50 in [5] is 1 nM.

Turning to `CCCCOCCOc1ccc(-c2ccc3c(c2)C=C(C(=O)Nc2ccc(CN(C)C4CCOCC4)cc2)CCS3(=O)=O)cc1` [Compound 17a], the IC50 in series [5] is 27 nM.

Regarding `CCCCOCCOc1ccc(-c2ccc3c(c2)C=C(C(=O)Nc2ccc(CN(C)C4CCOCC4)cc2)CCN3CC(C)C)cc1` [Compound 17b], the IC50 in [5] was 3.6 nM.

For `Cc1cccc(C)c1C(=O)N1CCC(C)(N2CCC(N(Cc3ccccc3)c3ccccc3)CC2)CC1` [Compound 19], the IC50 in [10] was 0.7 nM.

For `C=CCN(C(=O)OCc1ccc([N+](=O)[O-])cc1)C1CCN(CCC(C)(CN(C)S(=O)(=O)c2ccccc2)c2ccccc2)CC1` (stereo not shown) [Compound 21], the IC50 in series [11] was 4.4 nM.

As a reminder, the bioavailability is the share of a dose that reaches the circulation, judged against a reference dose that is usually intravenous.
